Data: patent US8227472B2, “Substituted pyrrolo-pyrazole derivatives as kinase inhibitors” (Nerviano Medical Sciences S.R.L., priority 2006, dated 2012)

How the values were obtained:
[1] = tested on: A2780 human ovarian cancer cells; assay: In vitro cell proliferation assay, A2780 (CellTiter-Glo); format: cell-based; settings: 72 hours
Protocol: In Vitro Cell Proliferation Assay
A2780 human ovarian and MCF7 human breast cancer cells (1250 cells/well) were seeded in white 384 well-plates in complete medium (RPMI1640 or EMEM plus 10% Fetal bovine serum) and treated with compounds dissolved in 0.1% DMSO, 24 h after seeding. The cells were incubated at 37° C. and 5% CO2 and after 72 hours the plates were processed using CellTiter-Glo assay (Promega) following the manufacturer's instruction.
CellTiter-Glo is a homogenous method based on the quantification of the ATP present, an indicator of metabolitically active cells. ATP is quantified using a system based on luciferase and D-luciferin resulting into light generation. The luminescent signal is proportional to the number of cells present in culture.
Briefly 25 microL/well reagent solution are added to each wells and after 5 minutes shacking microplates are red by a luminometer. The luminescent signal is proportional to the number of cells present in culture.

PLK-1 = biological target: T1, PLK-1 (Homo sapiens, UniProt P53350); assay: Biochemical assay for inhibitors of PLK-1 kinase activity (33P trans-phosphorylation, Dowex); settings: PLK-1 3 nM, 40 microM ATP, 85 microM alpha-casein
T1 construct: His tag (N, cleaved yes); TEV cleavage site (N, cleaved yes); made in house; host or cells: High5 insect cells (baculovirus generated in Sf9)
T1 sequence (P53350 2-345): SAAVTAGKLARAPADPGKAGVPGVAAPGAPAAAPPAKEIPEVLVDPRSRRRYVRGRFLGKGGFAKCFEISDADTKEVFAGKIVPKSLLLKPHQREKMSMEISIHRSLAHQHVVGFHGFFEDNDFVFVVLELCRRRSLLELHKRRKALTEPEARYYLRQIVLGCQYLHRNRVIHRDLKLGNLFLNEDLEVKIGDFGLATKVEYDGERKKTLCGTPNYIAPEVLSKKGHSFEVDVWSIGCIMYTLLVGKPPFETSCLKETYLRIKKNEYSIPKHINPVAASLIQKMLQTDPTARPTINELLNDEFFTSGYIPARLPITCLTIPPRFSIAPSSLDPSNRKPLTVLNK
Text: Cloning, Expression and Purification of Recombinant PLK1 Kinase Domain.
PLK1 kinase domain (corresponding to residues 2-345 of the full length sequence, see Swiss-Prot accession number P53350) was PCR amplified from the full-length human PLK1 gene purchased from imaGenes as clone IRATp970A078D.
For cloning purposes, the oligonucleotides included attB sites in order to obtain an attB-flanked PCR product suitable for cloning using the Gateway® technology (Invitrogen). Furthermore, for purification purposes, forward primer included a TEV® cleavage site (Amersham Biosciences). The resulting PCR product was cloned in the pDONR221 plasmid and then transferred in the baculovirus expression vector pVL1393 (Invitrogen) Gateway®-modified. For expression and purification purposes, a His tag was added N-terminal to the PLK kinase domain. Cloning was performed according to the protocols described in the Gateway® manual.
Baculoviruses were generated by cotransfecting Sf9 insect cells with the expression vector and the viral DNA using the BaculoGold® transfection kit (Pharmingen). Viral supernatant was recovered after 5 days and subjected to 3 rounds of amplification to increase viral titer. Recombinant protein was produced by infecting High5 insect cells. After 48 hours of infection, cells were recovered, pelletted and freezed at −80° C. For purification of recombinant protein, pellet was thawed, resuspended in lysis buffer (PBS, NaCl 150 mM, CHAPS 0.1%, DTT 20 mM, glycerol 10%, protease inhibitors) and lysed by sonication. Lysate was cleared by centrifugation and loaded on a Nichel affinity column. After extensive wash, recombinant protein was cleaved and eluted by incubation with TEV® protease.
Biochemical Assay for Inhibitors of PLK-1 Kinase Activity
The inhibitory activity of putative kinase inhibitors and the potency of selected compounds were determined using a trans-phosphorylation assay.
Specific peptide or protein substrates are trans-phosphorylated by their specific serine-threonine or tyrosine kinase, in the presence of ATP traced with ^33P-γ-ATP, and in the presence of their own optimal buffer and cofactors.
At the end of the phosphorylation reaction, more than 98% cold ATP and radioactive ATP is captured by an excess of the ion exchange dowex resin; the resin then settles down to the bottom of the reaction plate by gravity.
Supernatant, containing the phosphorylated substrate, is subsequently withdrawn and transferred into a counting plate, then evaluated by β-counting.
Kinase buffer was composed of 50 mM HEPES pH 7.9 containing 10 mM MnCl2, 1 mM DTT, 3 microM NaVO3, and 0.2 mg/mL BSA, 10 mM β-glycerophosphate.
The kinase assay was run with a final enzyme concentration PLK-1 of 3 nM, in presence of 40 microM ATP, 3 nM ^33P-γ-ATP and 85 microM substrate alpha-casein, SIGMA, #C-3240.
1) 3× Enzyme mix (done in Kinase Buffer 3×), 5 microL/well
2) 3× substrate and ATP mix (done in ddH2O), together with ^33P-γ-ATP, 5 microL/well
3) 3× test compounds (diluted into ddH2O—3% DMSO)—5 microL/well
For % inhibition studies, individual dilution plates at 1 mM, 100 microM and 10 microM are prepared in 100% DMSO, then diluted at a 3× concentration (30, 3 and 0.3 microM) in ddH2O, 3% DMSO. A Multimek 96 (Beckman) is used for dilutions and compound pipetting into the test plates
For IC50 determination, compounds are received as 1 mM, 100% DMSO solutions, plated into the first column of a microtiter plate (A1 to G1), 100 microL.
A Biomek 2000 (Beckman) is used for serial 1:3 dilutions in water, 3% DMSO, from column A1 to A10 and for all the seven compounds in the plate. In a standard experiment, the highest concentration of all compounds is 30 microM, then diluted in the final test mixture down to 10 microM. […]

SMILES | IC50 [1] [nM] | IC50 (PLK-1) [nM]
Cc1ccc(C(=O)Nc2n[nH]c3c2CN(C(=O)Nc2c(Cl)cccc2Cl)C3(C)C)cc1 [Compound 64, N-(2,6-dichlorophenyl)-6,6-dimethyl-3-[(4-methylbenzoyl)amino]-4,6-dihydropyrrolo[3,4-c]pyrazole-5(1H)-carboxamide] | 209 | 230
CN1CCN(c2ccc(C(=O)Nc3n[nH]c4c3CN(C(=O)Cc3cccs3)C4(C)C)cc2)CC1 [Compound 60, N-[6,6-dimethyl-5-(2-thienylacetyl)-1,4,5,6-tetrahydropyrrolo[3,4-c]pyrazol-3-yl]-4-(4-methylpiperazin-1-yl)benzamide] | 71 | 52
CN1CCN(c2ccc(C(=O)Nc3n[nH]c4c3CN(C(=O)Cc3ccccc3C(F)(F)F)C4(C)C)cc2)CC1 [Compound 44, N-(6,6-dimethyl-5-{[2-(trifluoromethyl)phenyl]acetyl}-1,4,5,6-tetrahydropyrrolo[3,4-c]pyrazol-3-yl)-4-(4-methylpiperazin-1-yl)benzamide] | 380 | 75
CC1(C)c2[nH]nc(NC(=O)c3cccc(N)c3)c2CN1C(=O)Nc1c(Cl)cccc1Cl [Compound 250, 3-[(3-aminobenzoyl)amino]-N-(2,6-dichlorophenyl)-6,6-dimethyl-4,6-dihydropyrrolo[3,4-c]pyrazole-5(1H)-carboxamide] | 119 | 30

Stronger by IC50 [1], values ahead:

IC50 [1] [nM] | IC50 (PLK-1) [nM] | SMILES
63 | 24 | CC1(C)c2[nH]nc(NC(=O)c3ccc(N)cc3)c2CN1C(=O)Nc1c(Cl)cccc1Cl [Compound 251, 3-[(4-aminobenzoyl)amino]-N-(2,6-dichlorophenyl)-6,6-dimethyl-4,6-dihydropyrrolo[3,4-c]pyrazole-5(1H)-carboxamide]
19 | 96 | CCc1ccccc1NC(=O)N1Cc2c(NC(=O)c3ccc(N4CCN(C)CC4)cc3)n[nH]c2C1(C)C [Compound 178, N-(2-ethylphenyl)-6,6-dimethyl-3-{[4-(4-methylpiperazin-1-yl)benzoyl]amino}-4,6-dihydropyrrolo[3,4-c]pyrazole-5(1H)-carboxamide]
